In US20210322386A1, “METHODS OF DELAYING AND REVERSING ALZHEIMER'S DISEASE PROGRESSION” (Loma Linda University, priority 2018, published 2021):
“Also recorded” adds a separate entry of the source. Read-outs that look alike come from different tables or passages of the source.

How the values were obtained:
[1] = target: T1, CYP27A1 enzyme (Homo sapiens, UniProt Q02318); settings: from Mast et al., Mol. Pharmacol., 2015, cited from earlier work
T1 sequence (Q02318 34-531): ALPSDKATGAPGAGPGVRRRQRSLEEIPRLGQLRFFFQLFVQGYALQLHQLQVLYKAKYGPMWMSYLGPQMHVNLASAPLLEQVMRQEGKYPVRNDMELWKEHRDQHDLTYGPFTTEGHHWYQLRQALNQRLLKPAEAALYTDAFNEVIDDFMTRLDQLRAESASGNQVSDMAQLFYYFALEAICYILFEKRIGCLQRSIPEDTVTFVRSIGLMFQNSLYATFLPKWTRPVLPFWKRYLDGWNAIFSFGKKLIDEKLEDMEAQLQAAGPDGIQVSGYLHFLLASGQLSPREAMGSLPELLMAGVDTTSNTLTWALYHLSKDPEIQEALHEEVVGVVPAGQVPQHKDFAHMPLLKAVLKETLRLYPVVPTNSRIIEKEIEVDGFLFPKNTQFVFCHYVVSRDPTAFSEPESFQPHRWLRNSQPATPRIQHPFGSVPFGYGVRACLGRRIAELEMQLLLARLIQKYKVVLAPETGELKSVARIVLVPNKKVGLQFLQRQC

[2] = test system: mice fed a high-cholesterol diet; assay: Y-maze test of cognitive function in mice fed a high-cholesterol diet; format: in vivo; settings: mice on high-cholesterol diet (standard chow containing 0.5% cholesterol), 8 weeks of treatment, about 0.4 mg anastrozole/animal/day in LabGel
Protocol: A pilot study was carried out to assess the safety profile and cognitive impact of anastrozole in 12-week old male mice. Mice were fed anastrozole or placebo (vehicle alone) for a period of 8 weeks using a hydrogel as the means of administration (n=6 per group). Because of the poor palatability of anastrozole in its available form, it was administered through a hydration gel especially designed for medication delivery (LabGel-ClearH20 catalog # 71-02-1081; Portland, Me.), LabGel consists of purified water, sucralose, fruit and natural flavoring, hydrocolloids, potassium sorbate, sodium benzoate, and phosphoric acid. […] Mice were monitored for health decline signs, and given an Appearance Score (Normal skin; skin tent on dorsum; hunched posture; eyes sunken in and severe skin tent; and failure to right self) and an Attitude Score (Normal; decreased activity; lethargy; non-responsiveness; and failure to flee when hand present in cage), as described (Bekkevold et al., J Am Assoc Lab Anim Sci, 52: 233-9, 2013).
12-week old male mice on either a normal or high-cholesterol diet were tested on the same day with an interval of 2 hours between the training 15 min) and testing (5 min) phases. Data were analyzed by one-way ANOVA and Bonferroni post-hoc test. […]

[3] = test system: 12-week old male mice; assay: Pilot study of safety profile of anastrozole in mice (Appearance/Attitude Scores, weight gain, postmortem organs); format: in vivo
Protocol: A pilot study was carried out to assess the safety profile and cognitive impact of anastrozole in 12-week old male mice. Mice were fed anastrozole or placebo (vehicle alone) for a period of 8 weeks using a hydrogel as the means of administration (n=6 per group). Because of the poor palatability of anastrozole in its available form, it was administered through a hydration gel especially designed for medication delivery (LabGel-ClearH20 catalog # 71-02-1081; Portland, Me.), LabGel consists of purified water, sucralose, fruit and natural flavoring, hydrocolloids, potassium sorbate, sodium benzoate, and phosphoric acid. For each 236 mL dose of LabGel, 45 mg of anastrozole powder, 40 μL of red food coloring, and 1 mL of propylene glycol are thoroughly mixed and the resulting anastrozole is distributed into mouse cages at 3 grams LabGel/mouse/day in a custom--made container easily accessible to the mice. The final concentration of anastrozole in the LabGel is 0.1906 mg/mL and it is kept fresh by replacing it every 48 hours. In the experiment, mice consumed about 2 mL/mouse/day of LabGel equating to about 0.4 mg anastrozole/animal/day, which is consistent with the literature (Overk et al., J Neurosci Methods, 195: 194-9, 2011). Mice were monitored for health decline signs, and given an Appearance Score (Normal skin; skin tent on dorsum; hunched posture; eyes sunken in and severe skin tent; and failure to right self) and an Attitude Score (Normal; decreased activity; lethargy; non-responsiveness; and failure to flee when hand present in cage), as described (Bekkevold et al., J Am Assoc Lab Anim Sci, 52: 233-9, 2013).

Row | SMILES | inhibition of the CYP27A1 enzyme [1] | other results
1 | C[C@@H](c1nc(-c2ccc(C#N)cc2)cs1)[C@](O)(Cn1cncn1)c1ccc(F)cc1F [ravuconazole] | Inhibitors of the CYP27A1 enzyme | –
2 | N#Cc1ccc(C2CCCc3cncn32)cc1 (stereo not shown) [fadrozole] | Inhibitors of the CYP27A1 enzyme | –
3 | CC[C@@H]([C@H](C)O)n1ncn(-c2ccc(N3CCN(c4ccc(OC[C@@H]5CO[C@@](Cn6cncn6)(c6ccc(F)cc6F)C5)cc4)CC3)cc2)c1=O [posaconazole] | Inhibitors of the CYP27A1 enzyme | –
4 | Cc1cccc([C@H](C)c2cnc[nH]2)c1C [dexmedetomidine] | Inhibitors of the CYP27A1 enzyme | –
5 | CC(C)(C#N)c1cc(Cn2cncn2)cc(C(C)(C)C#N)c1 [anastrozole] | Inhibitors of the CYP27A1 enzyme | cognitive function as measured by Y-maze test [2]: protects against cognitive loss; also recorded: ameliorates the negative effect of a high-cholesterol diet on cognitive function; signs of health decline (Appearance Score and Attitude Score) ([3]; 8 weeks, about 0.4 mg anastrozole/animal/day in LabGel): No signs of health decline; postmortem evaluation of major organs ([3]; after 8 weeks): no signs of toxicity; weight gain progression vs vehicle group ([3]; throughout the 8-week study): identical between both groups; inhibition of the CYP27A1 enzyme ([1]; listed as Anastrozole): shown to inhibit the CYP27A1 enzyme
